Results taken from publication PMC12064818, “A general assay platform to study protein pharmacology using ligand-dependent structural dynamics” (Nature Communications, 2025).
Several values for one entry are separate records, joined by “and”; a condition that tells them apart may be missing. Equal entries are not always repeated.

Experiments:
[1] = molecular target: T1, T7 Lig-N-HiBiT (DNA ligase) (Escherichia phage T7, UniProt P00969); assay: SDR assay (aqueous ligand dispense), T7 Lig-N-HiBiT; settings: for SDR assay data: 1 nM T7 Lig-N-HiBiT; for SDR assay data / SDR response: Log [ATP]; for SDR response: replicates
T1 sequence (P00969 2-359): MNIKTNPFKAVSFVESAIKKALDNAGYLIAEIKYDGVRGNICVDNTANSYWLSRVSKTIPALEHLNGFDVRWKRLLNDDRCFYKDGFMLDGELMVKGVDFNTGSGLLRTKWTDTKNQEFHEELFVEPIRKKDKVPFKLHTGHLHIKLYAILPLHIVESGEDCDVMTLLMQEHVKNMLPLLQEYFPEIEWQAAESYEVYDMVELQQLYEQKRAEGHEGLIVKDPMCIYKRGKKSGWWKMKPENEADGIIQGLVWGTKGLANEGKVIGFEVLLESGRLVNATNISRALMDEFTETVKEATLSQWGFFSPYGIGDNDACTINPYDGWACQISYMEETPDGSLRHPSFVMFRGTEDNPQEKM

[2] = molecular target: FLuc-N-HiBiT (firefly luciferase) (Photinus pyralis, UniProt P08659, form not given/L550V); assay: Firefly luciferase (FLuc) enzymatic luminescence assay, FLuc-N-HiBiT; format: biochemical; settings: for Functional Enzymatic Assay: 10 nM FLuc-N-HiBiT, replicates; for Functional Enzymatic Assay / 10 nM FLuc-N-HiBiT Enz, Mean: Log [PTC124]
Sequence of FLuc-N-HiBiT (firefly luciferase) (P08659 2-550 L550V, form open): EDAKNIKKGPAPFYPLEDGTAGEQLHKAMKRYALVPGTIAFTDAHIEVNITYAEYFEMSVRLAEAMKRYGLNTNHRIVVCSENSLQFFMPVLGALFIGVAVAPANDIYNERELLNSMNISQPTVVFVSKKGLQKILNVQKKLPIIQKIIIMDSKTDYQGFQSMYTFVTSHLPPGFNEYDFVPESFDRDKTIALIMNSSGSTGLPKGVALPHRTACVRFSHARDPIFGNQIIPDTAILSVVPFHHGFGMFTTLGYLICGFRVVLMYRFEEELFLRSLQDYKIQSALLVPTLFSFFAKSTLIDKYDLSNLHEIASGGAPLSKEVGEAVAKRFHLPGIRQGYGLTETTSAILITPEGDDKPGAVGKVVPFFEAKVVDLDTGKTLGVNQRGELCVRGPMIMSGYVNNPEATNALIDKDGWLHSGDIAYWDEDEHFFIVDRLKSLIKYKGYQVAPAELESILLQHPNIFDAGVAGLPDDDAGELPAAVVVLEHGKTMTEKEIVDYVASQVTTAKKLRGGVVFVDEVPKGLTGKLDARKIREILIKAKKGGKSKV
Method: The enzyme activity of FLuc-N-HiBiT, FLuc-C-HiBiT, and FLuc-C-NLuc was measured similar to P. pyralis firefly luciferase (FLuc) as previously described. […] Compounds and controls were added to each plate as described in Supplementary Data 8 with a Hornet pintool system (Wako Automation). Compounds were incubated with respective enzymes for 30–60 min at room temperature protected from light and covered by solid metal lid to prevent evaporation. […] Luciferin was incubated with FLuc enzyme for 5 min before FLuc activity was then measured on a ViewLux CCD imager (PerkinElmer), with exposure times up to ten seconds with medium to high gain settings. Data were normalized to average no enzyme control as 100% enzyme inhibition and average DMSO neutral control. See Supplementary Table 4 for additional details.
Supplementary Table 4. Protocol for Firefly luciferase (FLuc) and NanoLuc (NLuc) enzymatic
Supplementary Table 4: Protocol for Firefly luciferase (FLuc) and NanoLuc (NLuc) enzym atic lum inescence assay
Firefly luciferase (FLuc) enzym atic lum inescence assay
Sequence Param eter Value Description
No enzym e control (colum n 1) and enzym e solution (1- 10 nM FLuc enzym e) in FLuc assay
1 Reagent 4 µLbuffer; white/solid bottom , m edium bind, high base plates (Greiner), dispensed with BioRaptr
com pounds transferred to respective colum ns with Pintool
2b Test Com pounds 23 nLconcentration range) in colum ns 5- 48; com pounds transferred to respective wells with
3 Incubation 30 m in Incubate enzym e + com pounds at am bient tem p for 30 m in, protected from light
4 Reagent 3 µLAdd 3 µL of D-luciferin substrate solution to each well (final concentration 10 µM); dispensed
5 Detector ViewLux Read plate lum inescence (Exposure = 1- 10 sec; Gain = Medium -high; Speed = Slow;
Dispensing solution was diluted in 1X PBS, pH 7.4. […]

[3] = T7 Lig-N-HiBiT (1 nM), ligand 100 µM

Nc1ncnc2c1ncn2[C@@H]1O[C@H](COP(=O)(O)OP(=O)(O)OP(=O)(O)O)[C@@H](O)[C@H]1O [ATP]
EC50 [1]: ≥ 100 µM | SDR assay data ([1]; M -2.85): 436.8 and 379.9 and 405.2 | SDR assay data ([1]; M -3.15): 279.5 and 253.1 and 256.0 | SDR assay data ([1]; M -3.45): 148.4 and 136.3 and 161.1 | SDR assay data ([1]; M -3.75): 97.7 and 88.5 and 106.1 | SDR assay data ([1]; M -4.05): 63.0 and 57.2 and 69.3 | SDR assay data ([1]; M -4.35): 47.1 and 49.4 and 60.4 | SDR assay data ([1]; M -4.65): 42.9 and 27.8 and 47.0 | SDR assay data ([1]; M -4.95): 31.1 and 25.7 and 35.7 | SDR assay data ([1]; M -5.55): 21.1 and 18.2 and 32.8 | SDR assay data ([1]; M -6.46): 17.8 and 13.4 and 26.6 | SDR assay data ([1]; M -6.76): 16.5 and 24.2 and 25.4 | SDR response ([1]; M -2.85): 405.2 and 436.8 and 379.9 | SDR response ([1]; M -3.15): 256.0 and 279.5 and 253.1 | SDR response ([1]; M -3.45): 161.1 and 148.4 and 136.3 | SDR response ([1]; M -3.75): 106.1 and 97.7 and 88.5 | SDR response ([1]; M -4.05): 69.3 and 63.0 and 57.2 | SDR response ([1]; M -4.35): 60.4 and 47.1 and 49.4 | SDR response ([1]; M -4.65): 47.0 and 42.9 and 27.8 | SDR response ([1]; M -4.95): 35.7 and 31.1 and 25.7 | SDR response ([1]; M -5.25): 40.3 and 24.1 and 20.1 | SDR response ([1]; M -5.55): 32.8 and 21.1 and 18.2 | SDR response ([1]; M -5.86): 31.3 and 18.8 | SDR response ([1]; M -6.16): 32.1 and 13.9 and 17.4 | SDR response ([1]; M -6.46): 26.6 and 17.8 and 13.4 | SDR response ([1]; M -6.76): 25.4 and 16.5 and 24.2 | SDR assay response (in words) ([1]; T7 Lig-N-HiBiT): strong SDR signal | SDR assay statistics Ave RLU [1, 3]: 88.7 RLU | SDR assay statistics S:B [1, 3]: 2.0 | SDR assay statistics S:N [1, 3]: 5.7 | SDR assay statistics Z’ [1, 3]: 0.337 | max resp ([1]; T7 Lig-N-HiBiT, maximum response): 407.3

O=C(O)c1cccc(-c2noc(-c3ccccc3F)n2)c1 [PTC124, reference compound]
Functional Enzymatic Assay ([2]; M -4.48): 7.2 RLU and 7.9 RLU (2×) and 7.3 RLU and 6.7 RLU and 7.1 RLU | Functional Enzymatic Assay ([2]; M -4.96): 8.6 RLU and 8.1 RLU and 7.7 RLU and 8.3 RLU and 7.1 RLU and 7.2 RLU | Functional Enzymatic Assay ([2]; M -5.44): 8.3 RLU (2×) and 8.6 RLU and 8.4 RLU and 7.5 RLU (2×) | Functional Enzymatic Assay ([2]; M -5.91): 8.7 RLU (2×) and 9.2 RLU and 8.9 RLU and 8.3 RLU and 8.5 RLU | Functional Enzymatic Assay ([2]; M -6.39): 10.6 RLU and 10.5 RLU and 10.2 RLU (2×) and 10.1 RLU and 9.7 RLU | Functional Enzymatic Assay ([2]; M -6.87): 14.3 RLU (2×) and 14.5 RLU and 14.7 RLU and 15.0 RLU and 14.8 RLU | Functional Enzymatic Assay ([2]; M -7.35): 29.6 RLU and 29.7 RLU and 30.2 RLU and 33.4 RLU and 41.4 RLU and 37.0 RLU | Functional Enzymatic Assay ([2]; M -7.82): 144.5 RLU and 149.3 RLU and 178.2 RLU and 166.0 RLU and 190.3 RLU and 174.6 RLU | Functional Enzymatic Assay ([2]; M -8.30): 301.7 RLU and 309.5 RLU and 327.2 RLU and 328.1 RLU and 308.7 RLU and 316.4 RLU | Functional Enzymatic Assay ([2]; M -8.78): 370.7 RLU and 364.6 RLU and 370.3 RLU and 363.9 RLU and 364.3 RLU and 365.0 RLU | Functional Enzymatic Assay ([2]; M -9.25): 391.9 RLU and 389.1 RLU and 396.6 RLU and 382.9 RLU and 381.5 RLU and 379.2 RLU | Functional Enzymatic Assay ([2]; M -9.73): 393.8 RLU and 390.8 RLU and 393.2 RLU and 390.0 RLU and 387.4 RLU and 383.0 RLU | Functional Enzymatic Assay ([2]; M -10.21): 400.1 RLU and 398.5 RLU and 399.0 RLU and 394.9 RLU and 391.0 RLU and 381.4 RLU | Functional Enzymatic Assay ([2]; M -10.69): 399.5 RLU and 393.3 RLU and 400.5 RLU and 393.7 RLU and 383.2 RLU and 377.0 RLU | Functional Enzymatic Assay ([2]; M -11.16): 392.3 RLU and 386.5 RLU and 400.5 RLU and 393.0 RLU and 385.0 RLU and 368.5 RLU | Functional Enzymatic Assay ([2]; M -11.64): 389.5 RLU and 376.4 RLU and 395.8 RLU and 380.1 RLU and 381.7 RLU and 371.3 RLU | pIC50, FLuc-N-HiBiT (10 nM) ([2]; 10 μM ATP): 7.68 ± 0.02 | 10 nM FLuc-N-HiBiT Enz, Mean ([2]; M (Enz) -4.24): 7.3 RLU | 10 nM FLuc-N-HiBiT Enz, Mean ([2]; M (Enz) -4.72): 7.8 RLU | 10 nM FLuc-N-HiBiT Enz, Mean ([2]; M (Enz) -5.19): 8.1 RLU | 10 nM FLuc-N-HiBiT Enz, Mean ([2]; M (Enz) -5.67): 8.7 RLU | 10 nM FLuc-N-HiBiT Enz, Mean ([2]; M (Enz) -6.15): 10.2 RLU | 10 nM FLuc-N-HiBiT Enz, Mean ([2]; M (Enz) -6.63): 14.6 RLU | 10 nM FLuc-N-HiBiT Enz, Mean ([2]; M (Enz) -7.10): 33.5 RLU | 10 nM FLuc-N-HiBiT Enz, Mean ([2]; M (Enz) -7.58): 167.1 RLU | 10 nM FLuc-N-HiBiT Enz, Mean ([2]; M (Enz) -8.06): 315.3 RLU | 10 nM FLuc-N-HiBiT Enz, Mean ([2]; M (Enz) -8.53): 366.5 RLU | 10 nM FLuc-N-HiBiT Enz, Mean ([2]; M (Enz) -9.01): 386.9 RLU | 10 nM FLuc-N-HiBiT Enz, Mean ([2]; M (Enz) -9.49): 389.7 RLU | 10 nM FLuc-N-HiBiT Enz, Mean ([2]; M (Enz) -9.97): 394.1 RLU | 10 nM FLuc-N-HiBiT Enz, Mean ([2]; M (Enz) -10.44): 391.2 RLU | 10 nM FLuc-N-HiBiT Enz, Mean ([2]; M (Enz) -10.92): 387.6 RLU | 10 nM FLuc-N-HiBiT Enz, Mean ([2]; M (Enz) -11.40): 382.5 RLU
